# Measurements: patent publication US9988635B2, “Modulation of growth hormone receptor expression and insulin-like growth factor expression” (Antisense Therapeutics Limited, priority 2003, dated 2018)
# In the oligonucleotide strings, read from the 5' end, every base follows the letter of its sugar. An asterisk marks phosphorothioate; unmarked linkages are phosphodiester. Other units and linkages are bracketed, terminal groups are in braces. A string of capitals states the bases alone. e = 2'-O-(2-methoxyethyl) (MOE); [5mC] = 5-methylcytosine; d = 2'-deoxy (DNA)
# Tests used:
# [1] = test system: mouse growth hormone receptor mRNA; experiment: Inhibition of mouse growth hormone receptor mRNA levels in b.END cells, quantitative real-time PCR, incl. dose-response; type: cell-based; conditions: averages from three experiments
# Method: (§1) The mouse brain endothelial cell line b.END was obtained from Dr. Werner Risau at the Max Plank Instititute (Bad Nauheim, Germany). b.END cells were routinely cultured in DMEM, high glucose (Gibco/Life Technologies, Gaithersburg, Md.) supplemented with 10% fetal calf serum (Gibco/Life Technologies, Gaithersburg, Md.). Cells were routinely passaged by trypsinization and dilution when they reached 90% confluence. Cells were seeded into 96-well plates (Falcon-Primaria #3872) at a density of 3000 cells/well for use in RT-PCR analysis.
# (§2) When cells reached 65-75% confluency, they were treated with oligonucleotide. For cells grown in 96-well plates, wells were washed once with 100 μL OPTI-MEM™-1 reduced-serum medium (Invitrogen Corporation, Carlsbad, Calif.) and then treated with 130 μL of OPTI-MEM™-1 containing 3.75 μg/mL LIPOFECTIN™ (Invitrogen Corporation, Carlsbad, Calif.) and the desired concentration of oligonucleotide. Cells are treated and data are obtained in triplicate. After 4-7 hours of treatment at 37° C., the medium was replaced with fresh medium. Cells were harvested 16-24 hours after oligonucleotide treatment.
# (§3) Total RNA was isolated using an RNEASY 96™ kit and buffers purchased from Qiagen Inc. (Valencia, Calif.) following the manufacturer's recommended procedures. Briefly, for cells grown on 96-well plates, growth medium was removed from the cells and each well was washed with 200 μL cold PBS. 150 μL Buffer RLT was added to each well and the plate vigorously agitated for 20 seconds. 150 μL of 70% ethanol was then added to each well and the contents mixed by pipetting three times up and down. The samples were then transferred to the RNEASY 96™ well plate attached to a QIAVAC™ manifold fitted with a waste collection tray and attached to a vacuum source. Vacuum was applied for 1 minute. 500 μL of Buffer RW1 was added to each well of the RNEASY 96™ plate and incubated for 15 minutes and the vacuum was again applied for 1 minute. An additional 500 μL of Buffer RW1 was added to each well of the RNEASY 96™ plate and the vacuum was applied for 2 minutes. 1 mL of Buffer RPE was then added to each well of the RNEASY 96™ plate and the vacuum applied for a period of 90 seconds. The Buffer RPE wash was then repeated and the vacuum was applied for an additional 3 minutes. The plate was then removed from the QIAVAC™ manifold and blotted dry on paper towels. The plate was then re-attached to the QIAVAC™ manifold fitted with a collection tube rack containing 1.2 mL collection tubes. RNA was then eluted by pipetting 140 μL of RNAse free water into each well, incubating 1 minute, and then applying the vacuum for 3 minutes.
# (§4) Quantitation of growth hormone receptor mRNA levels was accomplished by real-time quantitative PCR using the ABI PRISM™ 7600, 7700, or 7900 Sequence Detection System (PE-Applied Biosystems, Foster City, Calif.) according to manufacturer's instructions. This is a closed-tube, non-gel-based, fluorescence detection system which allows high-throughput quantitation of polymerase chain reaction (PCR) products in real-time. As opposed to standard PCR in which amplification products are quantitated after the PCR is completed, products in real-time quantitative PCR are quantitated as they accumulate. This is accomplished by including in the PCR reaction an oligonucleotide probe that anneals specifically between the forward and reverse PCR primers, and contains two fluorescent dyes. A reporter dye (e.g., FAM or JOE, obtained from either PE-Applied Biosystems, Foster City, Calif., Operon Technologies Inc., Alameda, Calif. or Integrated DNA Technologies Inc., Coralville, Iowa) is attached to the 5′ end of the probe and a quencher dye (e.g., TAMRA, obtained from either PE-Applied Biosystems, Foster City, Calif., Operon Technologies Inc., Alameda, Calif. or Integrated DNA Technologies Inc., Coralville, Iowa) is attached to the 3′ end of the probe. […]
# [2] = test system: human growth hormone receptor mRNA; experiment: Inhibition of human growth hormone receptor mRNA levels in MCF7 cells, quantitative real-time PCR; type: cell-based; parameters: concentration or dose not given beside the values; conditions: averages from three experiments
# Method: as §1, with “human breast carcinoma” for “mouse brain endothelial”, “MCF-7” for “b.END”, “from” for “from Dr. Werner Risau at”, “American Type Culture Collection (Manassas, Va.). MCF-7” for “Max Plank Instititute (Bad Nauheim, Germany). b.END”, “DMEM low” for “DMEM, high”, “7000” for “3000”
# as §2, §3
# as §4, with “probe. When the probe and dyes are intact, reporter dye emission is quenched by the proximity of the 3′ quencher dye.” for “probe.”
Substance,% INHIB of mouse growth hormone receptor mRNA levels [1] [%],% INHIB of human growth hormone receptor mRNA levels [2] [%]
227456 (antisense eG*eT*e[5mC]*e[5mC]*eA*dG*dT*dT*dG*dA*dG*dG*d[5mC]*d[5mC]*dA*eA*eT*eG*eG*eG) [compound 227456],97,–
227445 (antisense eT*eA*e[5mC]*e[5mC]*eT*dG*dA*dG*dA*d[5mC]*d[5mC]*dT*d[5mC]*dG*dG*eA*eG*eT*eT*eT) [compound 227445],69,–
227520 (antisense e[5mC]*eA*eT*e[5mC]*eT*dT*dA*dA*dT*d[5mC]*d[5mC]*dT*dT*dG*dG*eA*eA*eA*e[5mC]*eA) [compound 227520],42,–
227470 (antisense e[5mC]*eT*e[5mC]*e[5mC]*eA*dA*dG*dG*dA*dT*dA*d[5mC]*d[5mC]*dA*dG*e[5mC]*eT*eG*eA*eT) [compound 227470],82,–
227451 (antisense eA*eT*eG*eA*eG*d[5mC]*dA*dA*dT*dT*d[5mC]*dT*dT*dG*d[5mC]*eA*eG*e[5mC]*eT*eT) [compound 227451],49,–
227495 (antisense eT*e[5mC]*e[5mC]*eT*eG*dA*dA*d[5mC]*dT*dG*d[5mC]*dA*dA*dA*dA*eG*e[5mC]*e[5mC]*eA*e[5mC]) [compound 227495],47,–
227464 (antisense e[5mC]*e[5mC]*eT*eT*eT*dA*dA*dT*d[5mC]*dT*dT*dT*dG*dG*dA*eA*e[5mC]*eT*eG*eG) [compound 227464],–,58
272305 (antisense eT*eT*eG*eT*e[5mC]*dT*dT*dT*dA*dG*dG*d[5mC]*d[5mC]*dT*dG*eG*eA*eT*eT*eA) [compound 272305],–,68
272355 (antisense eT*eT*eG*eA*eG*dT*dG*dT*dT*d[5mC]*d[5mC]*dT*dA*dA*dA*eA*eT*eG*eA*eA) [compound 272355],–,24
272346 (antisense e[5mC]*eT*e[5mC]*eT*eT*dG*dG*dA*dG*dA*dA*dA*dA*d[5mC]*d[5mC]*eA*eT*eA*eG*e[5mC]) [compound 272346],–,67
272326 (antisense eA*e[5mC]*eT*e[5mC]*eA*dG*d[5mC]*dT*d[5mC]*d[5mC]*dT*dT*d[5mC]*dA*dG*eT*eA*eG*eG*eA) [compound 272326],–,77
272334 (antisense eA*eA*eG*eA*eA*dA*dG*dG*d[5mC]*dT*dA*dA*dG*dG*d[5mC]*eA*eT*eG*eA*eT) [compound 272334],–,61
272360 (antisense eT*eA*eT*eT*eA*dG*dT*dT*dA*d[5mC]*d[5mC]*dT*dT*dG*dA*eG*eG*eA*eG*eA) [compound 272360],–,0
272341 (antisense eG*eA*eG*eG*e[5mC]*dT*dA*dT*dA*dG*dA*dT*d[5mC]*dT*dT*eA*eT*e[5mC]*eT*e[5mC]) [compound 272341],–,65
272359 (antisense eT*e[5mC]*e[5mC]*eA*eA*dA*dT*dA*dT*dT*d[5mC]*dT*dG*dG*dT*eA*e[5mC]*eT*eT*eT) [compound 272359],–,72
272342 (antisense eT*eA*eG*eT*eG*dA*dG*dA*dA*dA*dG*dA*dA*dA*dG*eT*eT*eT*e[5mC]*eT) [compound 272342],–,45
227489 (antisense eT*eG*eT*eT*e[5mC]*dA*dG*dT*dT*dG*dG*dT*d[5mC]*dT*dG*eT*eG*e[5mC]*eT*e[5mC]) [compound 227489],–,75
272333 (antisense eG*eT*eG*e[5mC]*eT*d[5mC]*dA*d[5mC]*dA*dT*dA*dG*d[5mC]*d[5mC]*dA*e[5mC]*eA*eT*eG*eA) [compound 272333],–,72
227488 (antisense eA*eG*eT*eT*eG*dG*dT*d[5mC]*dT*dG*dT*dG*d[5mC]*dT*d[5mC]*eA*e[5mC]*eA*eT*eA) [compound 227488],–,86
272347 (antisense eT*e[5mC]*eT*eA*e[5mC]*dA*d[5mC]*dT*dG*dA*dT*dG*dA*dT*dA*e[5mC]*eT*eT*eT*eA) [compound 272347],–,62
272354 (antisense eA*eG*eT*eT*eA*dT*dG*dT*dG*dA*d[5mC]*d[5mC]*d[5mC]*dT*dG*eA*eT*eT*eG*eA) [compound 272354],–,65
227469 (antisense e[5mC]*eT*eT*eA*eG*dA*dA*dG*dT*d[5mC]*dT*dG*dT*d[5mC]*dT*eG*eT*eG*eT*e[5mC]) [compound 227469],–,63
272352 (antisense e[5mC]*e[5mC]*eA*eA*eA*dA*dT*dG*dA*d[5mC]*dA*dT*dT*d[5mC]*dT*eG*eA*eG*eA*e[5mC]) [compound 272352],–,77
272344 (antisense eA*e[5mC]*eA*e[5mC]*eT*d[5mC]*dA*dA*dT*dT*d[5mC]*dT*dA*dG*d[5mC]*eT*eT*eT*eT*e[5mC]) [compound 272344],–,60
272337 (antisense eA*eA*eA*e[5mC]*eA*dT*dA*dG*d[5mC]*d[5mC]*dA*dT*dT*d[5mC]*dA*eA*eT*eG*e[5mC]*eT) [compound 272337],–,39
272353 (antisense eA*eT*eA*eA*eT*dG*dG*d[5mC]*dT*dT*dA*dT*dG*dT*dG*eG*e[5mC]*e[5mC]*eA*e[5mC]) [compound 272353],–,72
272314 (antisense eT*eA*eG*eG*eG*dT*d[5mC]*d[5mC]*dA*dT*d[5mC]*dA*dT*dT*dT*eT*e[5mC]*e[5mC]*eA*eT) [compound 272314],–,56
272306 (antisense eT*eT*eA*eG*eA*dA*dG*dA*dA*dT*dT*dT*dG*dT*d[5mC]*eT*eT*eT*eA*eG) [compound 272306],–,13
272335 (antisense eA*eA*eA*eT*eA*d[5mC]*dG*dT*dA*dG*d[5mC]*dT*d[5mC]*dT*dT*eG*eG*eG*eA*eA) [compound 272335],–,47
272330 (antisense eG*eA*eT*eG*e[5mC]*dA*d[5mC]*dT*dT*dT*dT*dT*dG*dG*d[5mC]*eA*eT*e[5mC]*eT*eG) [compound 272330],–,47
